Test results taken from PubChem BioAssay (NCI).
Where “and” joins values, the source holds several entries; their conditions need not be identical. Equal entries are not always repeated.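 Test compounds were applied to cells in 96-well plates for 48 hours at 5 doses. Here, GI50 denotes the concentration required for 50% inhibition of growth. TGI marks complete inhibition of growth.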

Columns and labels:
Assay in all cases: growth of human tumour cells (NCI), 48 h
[1] = system: 786-0 renal
[2] = system: A498 renal
[3] = system: A549 NSCLC
[4] = system: ACHN renal
[5] = system: BT-549 breast
[6] = system: CAKI-1 renal
[7] = system: CCRF-CEM leukemia
[8] = system: COLO 205 colon
[9] = system: DU-145 prostate
[10] = system: EKVX NSCLC
[11] = system: HCC-2998 colon
[12] = system: HCT-116 colon
[13] = system: HCT-15 colon
[14] = system: HL-60(TB) leukemia
[15] = system: HOP-62 NSCLC
[16] = system: HOP-92 NSCLC
[17] = system: HS 578T breast
[18] = system: HT29 colon
[19] = system: IGROV1 ovarian
[20] = system: K-562 leukemia
[21] = system: KM12 colon
[22] = system: LOX IMVI melanoma
[23] = system: M14 melanoma
[24] = system: MALME-3M melanoma
[25] = system: MCF7 breast
[26] = system: MDA-MB-231 breast
[27] = system: MDA-MB-435
[28] = system: MDA-N
[29] = system: MOLT-4 leukemia
[30] = system: NCI-H226 lung
[31] = system: NCI-H23 lung
[32] = system: NCI-H460 lung
[33] = system: NCI-H522 lung
[34] = system: NCI/ADR-RES ovarian
[35] = system: OVCAR-3 ovarian
[36] = system: OVCAR-4 ovarian
[37] = system: OVCAR-5 ovarian
[38] = system: OVCAR-8 ovarian
[39] = system: PC-3 prostate
[40] = system: RPMI-8226 leukemia
[41] = system: RXF 393 renal
[42] = system: SF-268 CNS
[43] = system: SF-295 CNS
[44] = system: SF-539 CNS
[45] = system: SK-MEL-2 melanoma
[46] = system: SK-MEL-28 melanoma
[47] = system: SK-MEL-5 melanoma
[48] = system: SK-OV-3 ovarian
[49] = system: SN12C renal
[50] = system: SNB-19 CNS
[51] = system: SNB-75 CNS
[52] = system: SR leukemia
[53] = system: SW-620 colon
[54] = system: T-47D breast
[55] = system: TK-10 renal
[56] = system: U251 CNS
[57] = system: UACC-257 melanoma
[58] = system: UACC-62 melanoma
[59] = system: UO-31 renal
[60] = system: DLD-1 colon
[61] = system: DMS 114 small cell lung
[62] = system: DMS 273 small cell lung
[63] = system: HOP-18 NSCLC
[64] = system: KM20L2 colon
[65] = system: LXFL 529 NSCLC
[66] = system: M19-MEL melanoma
[67] = system: SNB-78 CNS

## COc1ccc2c(c1)CCCN2S(=O)(=O)c1ccccc1[N+](=O)[O-]
[1]
  TGI: > 100 µM
[2]
  TGI: > 78 µM
[3]
  TGI: > 100 µM
[4]
  TGI: > 100 µM
[5]
  TGI: 66.7 µM
[6]
  TGI: > 100 µM
[7]
  TGI: 80.9 µM
[8]
  TGI: > 79.8 µM
[9]
  TGI: > 100 µM
[10]
  TGI: > 91.9 µM
[11]
  TGI: 84.5 µM
[12]
  TGI: 88.9 µM
[13]
  TGI: > 97.4 µM
[14]
  TGI: 37.1 µM
[15]
  TGI: > 100 µM
[16]
  TGI: 97.8 µM
[17]
  TGI: > 97.1 µM
[18]
  TGI: 77.2 µM
[19]
  TGI: > 100 µM
[20]
  TGI: > 68.9 µM
[21]
  TGI: > 100 µM
[22]
  TGI: > 88.6 µM
[23]
  TGI: > 92.8 µM
[24]
  TGI: > 86.3 µM
[25]
  TGI: 99.3 µM
[26]
  TGI: > 100 µM
[27]
  TGI: 22 µM
[28]
  TGI: 26.7 µM
[29]
  TGI: 67.3 µM
[30]
  TGI: > 96.2 µM
[31]
  TGI: > 100 µM
[32]
  TGI: > 87.9 µM
[33]
  TGI: 66.5 µM
[34]
  TGI: > 85.6 µM
[35]
  TGI: > 92.3 µM
[36]
  TGI: > 100 µM
[37]
  TGI: > 100 µM
[38]
  TGI: > 89.4 µM
[39]
  TGI: > 100 µM
[40]
  TGI: 71.3 µM
[41]
  TGI: 55.9 µM
[42]
  TGI: > 96.8 µM
[43]
  TGI: > 100 µM
[44]
  TGI: 68.8 µM
[45]
  TGI: 72.4 µM
[46]
  TGI: > 100 µM
[47]
  TGI: 62.2 µM
[48]
  TGI: > 77 µM
[49]
  TGI: > 100 µM
[50]
  TGI: > 100 µM
[51]
  TGI: > 87 µM
[52]
  TGI: > 78.8 µM
[53]
  TGI: > 100 µM
[54]
  TGI: > 87.8 µM
[55]
  TGI: 97.1 µM
[56]
  TGI: > 92 µM
[57]
  TGI: > 100 µM
[58]
  TGI: > 97.5 µM
[59]
  TGI: > 94.5 µM

## Cc1nc2ccc(NC3OC(CO)C(O)C(O)C3O)cc2c(=O)n1-c1ccccc1 (stereo not drawn)
[1]
  TGI: > 100 µM
[2]
  TGI: > 100 µM
[4]
  TGI: > 100 µM
[5]
  TGI: > 100 µM
[6]
  TGI: > 100 µM
[8]
  TGI: > 100 µM
[9]
  TGI: > 100 µM
[10]
  TGI: > 100 µM
[11]
  TGI: > 100 µM
[12]
  TGI: > 100 µM
[13]
  TGI: > 100 µM
[14]
  TGI: > 100 µM
[15]
  TGI: > 100 µM
[17]
  TGI: > 100 µM
[18]
  TGI: > 100 µM
[19]
  TGI: > 100 µM
[20]
  TGI: > 100 µM
[21]
  TGI: > 100 µM
[22]
  TGI: > 100 µM
[24]
  TGI: > 100 µM
[25]
  TGI: > 100 µM
[26]
  TGI: > 100 µM
[27]
  TGI: > 100 µM
[28]
  TGI: > 100 µM
[29]
  TGI: > 100 µM
[30]
  TGI: > 100 µM
[31]
  TGI: > 100 µM
[32]
  TGI: > 100 µM
[33]
  TGI: > 100 µM
[34]
  TGI: > 100 µM
[35]
  TGI: > 100 µM
[36]
  TGI: > 100 µM
[37]
  TGI: > 100 µM
[38]
  TGI: > 100 µM
[39]
  TGI: > 100 µM
[40]
  TGI: > 100 µM
[41]
  TGI: > 100 µM
[42]
  TGI: > 100 µM
[43]
  TGI: > 100 µM
[45]
  TGI: > 100 µM
[46]
  TGI: > 100 µM
[47]
  TGI: > 100 µM
[49]
  TGI: > 100 µM
[50]
  TGI: > 100 µM
[51]
  TGI: > 100 µM
[52]
  GI50: 11.1 µM and > 100 µM
  TGI: > 100 µM
[53]
  TGI: > 100 µM
[54]
  TGI: > 100 µM
[55]
  TGI: > 100 µM
[56]
  TGI: > 100 µM
[57]
  TGI: > 100 µM
[58]
  TGI: > 100 µM
[59]
  TGI: > 100 µM

## CCN(CC)C(=O)N1CCN(C=S)CC1
[1]
  TGI: > 100 µM
[2]
  TGI: > 100 µM
[3]
  TGI: > 100 µM
[4]
  TGI: > 100 µM
[7]
  TGI: > 100 µM
[8]
  TGI: > 100 µM
[60]
  TGI: > 100 µM
[61]
  TGI: > 100 µM
[62]
  TGI: > 100 µM
[10]
  TGI: > 100 µM
[11]
  TGI: > 100 µM
[12]
  TGI: > 100 µM
[13]
  TGI: > 100 µM
[14]
  TGI: > 100 µM
[63]
  TGI: > 100 µM
[15]
  TGI: > 100 µM
[18]
  TGI: > 100 µM
[19]
  TGI: > 100 µM
[20]
  TGI: > 100 µM
[21]
  TGI: > 100 µM
[64]
  TGI: > 100 µM
[22]
  TGI: > 100 µM
[65]
  TGI: > 100 µM
[23]
  TGI: > 100 µM
[66]
  TGI: > 100 µM
[24]
  TGI: > 100 µM
[29]
  TGI: > 100 µM
[30]
  TGI: > 100 µM
[31]
  TGI: > 100 µM
[32]
  TGI: > 100 µM
[33]
  TGI: > 100 µM
[35]
  TGI: > 100 µM
[36]
  TGI: > 100 µM
[37]
  TGI: > 100 µM
[38]
  TGI: > 100 µM
[41]
  TGI: > 100 µM
[42]
  TGI: > 100 µM
[44]
  TGI: > 100 µM
[45]
  TGI: > 100 µM
[46]
  TGI: > 100 µM
[47]
  TGI: > 100 µM
[48]
  TGI: > 100 µM
[49]
  TGI: > 100 µM
[50]
  TGI: > 100 µM
[51]
  TGI: > 100 µM
[67]
  TGI: > 100 µM
[52]
  TGI: > 100 µM
[53]
  TGI: > 100 µM
[55]
  TGI: > 100 µM
[56]
  TGI: > 100 µM
[57]
  TGI: > 100 µM
[58]
  TGI: > 100 µM
[59]
  TGI: > 100 µM

## Fc1cccc(Cl)c1C1SCc2nc3cc4ccccc4cc3n21 (stereo not drawn)
[1]
  TGI: > 100 µM
[3]
  TGI: > 100 µM
[4]
  TGI: > 100 µM
[5]
  TGI: > 100 µM
[6]
  TGI: > 100 µM
[7]
  TGI: > 100 µM
[8]
  TGI: > 100 µM
[9]
  TGI: > 100 µM
[10]
  TGI: > 100 µM
[11]
  TGI: > 100 µM
[12]
  TGI: > 100 µM
[13]
  TGI: > 100 µM
[15]
  TGI: > 100 µM
[16]
  TGI: 72.3 µM
[17]
  TGI: > 100 µM
[18]
  TGI: > 100 µM
[19]
  TGI: > 100 µM
[20]
  TGI: > 100 µM
[21]
  TGI: > 100 µM
[22]
  TGI: > 100 µM
[23]
  TGI: > 100 µM
[24]
  TGI: > 100 µM
[25]
  TGI: > 100 µM
[26]
  TGI: > 100 µM
[27]
  TGI: > 100 µM
[28]
  TGI: > 100 µM
[29]
  TGI: > 100 µM
[30]
  TGI: > 100 µM
[31]
  TGI: > 100 µM
[34]
  TGI: > 100 µM
[35]
  TGI: > 100 µM
[36]
  TGI: > 100 µM
[37]
  TGI: > 100 µM
[38]
  TGI: > 100 µM
[39]
  TGI: > 100 µM
[40]
  TGI: > 100 µM
[41]
  TGI: > 100 µM
[42]
  TGI: > 100 µM
[43]
  TGI: > 100 µM
[44]
  TGI: > 100 µM
[45]
  TGI: > 100 µM
[46]
  TGI: > 100 µM
[48]
  TGI: > 100 µM
[49]
  TGI: > 100 µM
[50]
  TGI: > 100 µM
[52]
  TGI: > 100 µM
[53]
  TGI: > 100 µM
[54]
  TGI: > 100 µM
[55]
  TGI: > 100 µM
[56]
  TGI: > 100 µM
[57]
  TGI: > 100 µM
[58]
  TGI: > 100 µM
